pIC50: −log10 of the molar value. The source made the active and inactive calls. No cut-off for these calls is given here.
Columns and labels:
[1] = Antioxidant activity assessed as inhibition of AAPH-induced lipid peroxidation at 100 uM; type: functional
[2] = Antioxidant activity assessed as superoxide radical scavenging activity at 100 uM by nitroblue tetrazolium method; type: functional
[3] = test system: Radical scavenging activity; assay: Antioxidant activity assessed as DPPH radical scavenging activity at 0.05 mM after 60 mins; type: functional
[4] = test system: Radical scavenging activity; assay: Antioxidant activity assessed as DPPH radical scavenging activity at 0.01 mM after 20 mins; type: functional
Rattus norvegicus = assay: Antiinflammatory activity in rat assessed as inhibition of carrageenan-induced paw edema at 0.01 mmol/kg, ip after 3.5 hrs; type: functional
Glycine max = assay: Inhibition of soybean lipoxygenase at 100 uM by UV absorbance based assay
[5] = test system: Radical scavenging activity; assay: Antioxidant activity assessed as DPPH radical scavenging activity at 0.05 mM after 20 mins; type: functional
[6] = test system: Radical scavenging activity; assay: Antioxidant activity assessed as DPPH radical scavenging activity at 0.01 mM after 60 mins; type: functional
[7] = Inhibition of soybean lipoxygenase by UV absorbance based assay; design: species or system Glycine max

Row | SMILES | inhibition [1] | inhibition [2] | Activity [3] | Activity [4] | inhibition in vivo at 10 µmol/kg (Rattus norvegicus) | inhibition (Glycine max) | Activity [5] | Activity [6] | pIC50 [7] | Activity (Rattus norvegicus)
1 | O=c1ccc2c(o1)c(O)cc1ccccc12 | 100% | 79% | 20% | 46% | 18% | inactive | 22% | 54% |  | 
2 | O=C(O)/C=C/c1ccc(O)c(O)c1 [CAFFEIC ACID] |  | 71% |  |  |  |  |  |  | 3.22 | 
3 | Cc1cc2oc(=O)ccc2cc1O | 24% | 54% | 20% | 51% |  | 3% | 22% | 51% |  | 
4 | O=c1ccc2ccccc2o1 [COUMARIN] |  |  | inactive | 5% | 30% | 15% | inactive | 21% |  | 
5 | Cc1ccc2ccc(=O)oc2c1 |  |  | inactive | 2% | 55% | 89% | inactive | 2% |  | 
6 | Cc1cc(O)cc2oc(=O)ccc12 | 30% | 61% | 43% | 31% |  | 27% | 43% | 54% |  | 
7 | O=c1ccc2cc(O)c3c(c2o1)CCCC3 | 42% | 68% | 38% | 44% |  | 12% | 35% | 40% |  | 
8 | O=c1ccc2ccc(O)cc2o1 [UMBELLIFERONE] | 83% | 65% | inactive | 2% |  |  | inactive | 2% | 4.37 | inactive
9 | O=c1ccc2c(cc(O)c3ccccc32)o1 | 57% | inactive | 31% | 55% | 15% | 38% | 28% | 51% |  | 
10 | O=c1ccc2cc(O)c3ccccc3c2o1 | 100% | 61% | 72% | 77% | 39% |  | 65% | 89% | 4.00 | 
11 | CC(Cc1ccc(O)c(O)c1)C(C)Cc1ccc(O)c(O)c1 (stereo not drawn) |  |  | 72% | 81% |  |  | 68% | 83% |  | 
12 | Cc1c(C)c2c(c(C)c1O)CCC(C)(C(=O)O)O2 (stereo not drawn) | 73% |  |  |  |  |  |  |  |  | 
13 | COc1ccc2c(c1)c(CC(=O)O)c(C)n2C(=O)c1ccc(Cl)cc1 [INDOMETHACIN] |  |  |  |  | 47% |  |  |  |  | 
14 | O=c1ccc2cccc(O)c2o1 [8-Hydroxycoumarin] | 28% | 56% | 30% | 33% | 18% | 37% | 31% | 32% |  | 
15 | Cc1c(O)ccc2ccc(=O)oc12 | inactive | 60% | 15% | 26% |  | 25% | 14% | 27% |  | 
